In PMC10349193 (CPT: Pharmacometrics & Systems Pharmacology, 2023):
pEC50, pKi: −log10 of the molar value. Read-outs that look alike come from different tables or passages of the source.

Assays:
[1] = test system: SLC22A8; settings: basal, ref SimCYP library version 19, cited from earlier work
[2] = test system: ABCC4; settings: apical, ref SimCYP library version 19, cited from earlier work
[3] = model input; ref SimCYP library version 19; cited from earlier work
[4] = test system: proximal tubular cells; settings: Mech KiM; ref SimCYP library version 19; cited from earlier work
[5] = test system: Caco-2; settings: ref SimCYP library version 19, cited from earlier work
[6] = set-up: method as in SimCYP library version 19; settings: ref SimCYP library version 19; cited from earlier work
[7] = model input; ref SimCYP library version 19; cited from earlier work; remark: listed apart in the source
[8] = test system: SLC47As; settings: apical, ref SimCYP library version 19, cited from earlier work
[9] = test system: CYP2D6; settings: ref SimCYP library version 19, cited from earlier work
[10] = test system: SLC22A2; settings: basal, ref SimCYP library version 19, cited from earlier work
[11] = test system: CYP1A2; set-up: method as in SimCYP library version 19; settings: ref SimCYP library version 19, cited from earlier work; for CYP1A2 CLint: recombinant enzyme kinetics
[12] = test system: CYP2B6; set-up: method as in SimCYP library version 19; settings: ref SimCYP library version 19, cited from earlier work
[13] = ref SimCYP library version 19, cited from earlier work
[14] = test system: CYP2B6; settings: ref SimCYP library version 19, cited from earlier work
[15] = test system: CYP3A4; set-up: method as in SimCYP library version 19; settings: ref SimCYP library version 19, cited from earlier work
[16] = test system: CYP2A6; settings: ref SimCYP library version 19, cited from earlier work
[17] = model input; ref SimCYP library version 19; cited from earlier work; remark: listed apart in the source
[18] = test system: CYP2C19; settings: ref SimCYP library version 19, cited from earlier work
[19] = test system: CYP3A4; settings: ref SimCYP library version 19; cited from earlier work
[20] = test system: MDCK II; settings: fluvoxamine file with reference compounds; ref SimCYP library version 19; cited from earlier work
[21] = test system: T1, P-gp; assay: P-gp substrate assessment in Caco-2 monolayers with verapamil; type: in vitro ADME; settings: human, Caco-2, with verapamil (concentration not stated); for Papp A→B at 2 h, 10 μM: read-out: P app,AP→BL, with inhibitor; for Papp B→A at 2 h, 10 μM: read-out: P app,BL→AP, with inhibitor
T1 construct: endogenous in cells; host or cells: Caco-2

[22] = target: T2, P-gp (Homo sapiens, UniProt P08183); assay: as above; type: in vitro ADME; settings: Caco-2, with verapamil (concentration not stated), read-out: Efflux ratio P app,BL→AP/AP→BL, with inhibitor
T2 construct: endogenous in cells; host or cells: Caco-2
T2 sequence (P08183 whole entry): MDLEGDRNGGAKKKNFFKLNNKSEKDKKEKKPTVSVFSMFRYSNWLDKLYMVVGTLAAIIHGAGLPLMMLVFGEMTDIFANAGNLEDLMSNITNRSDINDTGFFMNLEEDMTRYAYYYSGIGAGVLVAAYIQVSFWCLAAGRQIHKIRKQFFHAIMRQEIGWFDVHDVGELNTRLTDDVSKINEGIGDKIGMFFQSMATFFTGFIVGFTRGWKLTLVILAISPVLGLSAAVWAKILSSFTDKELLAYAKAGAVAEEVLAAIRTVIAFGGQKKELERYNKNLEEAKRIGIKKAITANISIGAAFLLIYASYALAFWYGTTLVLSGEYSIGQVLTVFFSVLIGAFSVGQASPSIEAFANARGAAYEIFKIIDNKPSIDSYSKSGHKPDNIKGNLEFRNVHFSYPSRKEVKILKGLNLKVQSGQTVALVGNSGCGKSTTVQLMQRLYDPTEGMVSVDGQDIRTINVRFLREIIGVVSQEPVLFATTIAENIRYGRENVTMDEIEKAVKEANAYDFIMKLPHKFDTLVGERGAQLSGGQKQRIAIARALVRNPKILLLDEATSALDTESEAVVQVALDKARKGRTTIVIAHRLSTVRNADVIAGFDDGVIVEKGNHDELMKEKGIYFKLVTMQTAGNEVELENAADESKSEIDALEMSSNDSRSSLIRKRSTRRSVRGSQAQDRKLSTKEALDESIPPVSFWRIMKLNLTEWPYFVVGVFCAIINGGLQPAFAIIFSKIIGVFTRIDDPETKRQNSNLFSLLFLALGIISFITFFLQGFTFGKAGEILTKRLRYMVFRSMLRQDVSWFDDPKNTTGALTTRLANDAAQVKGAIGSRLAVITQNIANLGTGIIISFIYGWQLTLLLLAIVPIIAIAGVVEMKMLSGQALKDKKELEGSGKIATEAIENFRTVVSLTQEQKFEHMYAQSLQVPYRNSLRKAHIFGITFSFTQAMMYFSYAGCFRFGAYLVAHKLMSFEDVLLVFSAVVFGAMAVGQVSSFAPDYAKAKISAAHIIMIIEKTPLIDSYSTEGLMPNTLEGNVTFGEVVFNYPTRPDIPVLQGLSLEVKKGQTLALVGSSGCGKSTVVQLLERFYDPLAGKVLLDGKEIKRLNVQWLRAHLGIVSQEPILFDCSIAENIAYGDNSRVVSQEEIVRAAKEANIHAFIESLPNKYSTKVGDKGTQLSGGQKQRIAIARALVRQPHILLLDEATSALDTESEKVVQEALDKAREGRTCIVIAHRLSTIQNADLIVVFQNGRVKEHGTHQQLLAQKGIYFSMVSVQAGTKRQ

[23] = Apparent permeability in Caco-2 monolayers; type: in vitro ADME; settings: human, Caco‐2, 10 μM; for Papp A→B at 2 h, 10 μM: read-out: P app,AP→BL, without inhibitor; for Papp B→A at 2 h, 10 μM: read-out: P app,BL→AP, without inhibitor; for efflux ratio at 2 h, 10 μM: read-out: Efflux ratio P app,BL→AP/AP→BL, without inhibitor

In the case of CN/C(=N/CCSCc1nc[nH]c1C)NC#N [Cimetidine], the “SLC22A8 Jmax” value [1] is listed as 1232, the Km ([1]; read-out: SLC22A8 Km) is listed as 162 µM and the “ABCC4 Jmax” value [2] is listed as 216. The Km ([2]; read-out: ABCC4 Km) was 18.2 µM, the “Fraction unbound in plasma” value [3] was 0.8 and the “CLPD,apical” value [4] was 2.61E-05 mL/min/million proximal tubular cells. The “CLPD,basal” value [4] was 2.61E-05 mL/min/million proximal tubular cells, the fuKidney cell [4] was 1 and the fuUrine [4] was 1. For the same molecule, the “Reference compound Papp” value ([5]; Caco-2 pH 6.5: pH 7.4, references of fluconazole file, unit not given) was 3.06, the CLR [6] was 31.6 L/h and the Lag time [7] was 0.15/28 h. For the same molecule, the fa [7] was 0.92/30, the fuGut [7] was 1 and the ka [7] was 0.7/18 1/h. The “SLC47As Jmax” value [8] was 135.5, the Km ([8]; read-out: SLC47As Km) was 7.7 µM and the pKi ([9]; read-out: CYP2D6 Ki, competitive inhibition) was 5.46. For the same molecule, the “fumic (CYP2D6 inhibition)” value [9] was 1, the “SLC22A2 Jmax” value [10] was 2170 and the Km ([10]; read-out: SLC22A2 Km) was 72.6 µM.

For O=C1Nc2ccc(Cl)cc2[C@@](C#CC2CC2)(C(F)(F)F)O1 [Efavirenz], the “CYP1A2 CLint” value [11] is given as 0.03 μL/min/pmol of isoform, the “fumic (CYP1A2 metabolism)” value [11] is given as 1 and the “CYP2B6 Indmax” value ([12]; induction) is given as […]. The pEC50 ([12]; induction, read-out: CYP2B6 IndC50) was […], the “fuinc (CYP2B6 induction)” value [12] was […] and the “Volume [Vsac]” value ([13]; single adjusting compartment) was 1.1 L/kg. For the same molecule, the kin ([13]; single adjusting compartment) was 0.29 h⁻¹, the kout ([13]; single adjusting compartment) was 0.9 h⁻¹ and the “CYP2B6 CLint” value ([14]; recombinant enzyme kinetics) was 1.36 μL/min/pmol of isoform. The “fumic (CYP2B6 metabolism)” value [14] was 1, the “Fraction unbound in plasma” value [3] was 0.029 and the “CYP3A4 CLint” value ([15]; recombinant enzyme kinetics) was 0.01 μL/min/pmol of isoform. For the same molecule, the “fumic (CYP3A4 metabolism)” value [15] was 1, the Lag time [7] was 0.36/30 h and the fa [7] was 0.67/15. For the same molecule, the fuGut [7] was 0.005, the ka [7] was 0.41/15 1/h and the “CYP2A6 CLint” value ([16]; recombinant enzyme kinetics) was 0.47 μL/min/pmol of isoform. For the same molecule, the “fumic (CYP2A6 metabolism)” value [16] was 1, the “Log P” value [17] was 4.02 and the PSA [17] was 38.33 A^2.

For OC(Cn1cncn1)(Cn1cncn1)c1ccc(F)cc1F [Fluconazole], the Vss ([13]; minimal PBPK model) is listed as 0.76 L/kg, the “Volume [Vsac]” value ([13]; single adjusting compartment) is listed as 1e-05 L/kg and the “Caco-2 Papp” value ([5]; pH 6.5: pH 7.4, Passive&Active, fluconazole file) is listed as 29.8 10^-6 cm/s. For the same molecule, the CLR [6] was 0.86 L/h, the pKi ([18]; read-out: CYP2C19 Ki, competitive inhibition) was 5.70 and the “fumic (CYP2C19 inhibition)” value [18] was 1.

In the case of CCC(C)n1ncn(-c2ccc(N3CCN(c4ccc(OCC5COC(Cn6cncn6)(c6ccc(Cl)cc6Cl)O5)cc4)CC3)cc2)c1=O (stereo not shown) [Itraconazole], the “CYP1A2 CLint” value [11] is given as 1/1 μL/min/pmol, the “fumic (CYP1A2 metabolism)” value [11] is given as 1/1 and the “Volume [Vsac]” value ([13]; single adjusting compartment) is given as 1e-05 L/kg. For the same molecule, the kin ([13]; single adjusting compartment) was 0 h⁻¹, the “Fraction unbound in plasma” value [3] was 0.016 and the “CYP3A4 Vmax” value ([15]; recombinant enzyme kinetics) was 0.065 pmol/min/pmol of isoform. The “fumic (CYP3A4 metabolism)” value [15] was 1, the Lag time [7] was 0/30 h and the QGut [7] was 18.32/12. The fa [7] was 0.59/30, the fuGut [7] was 0.016 and the ka [7] was 0.6/30 1/h. The “fumic (CYP3A4 inhibition)” value [19] was 1 and the “Log P” value [17] was 4.47.

For COCCc1ccc(OCC(O)CNC(C)C)cc1 (stereo not shown) [Metoprolol], the “MDCK II Papp” value [20] is listed as 29.6 10^-6 cm/s and the “Caco-2 Papp” value ([5]; pH 7.4: pH 7.4, Passive&Active, erythromycin file with reference compounds) is listed as 145 10^-6 cm/s.

CC(C)(C)NCC(O)COc1cccc2c1CC(O)C(O)C2 (stereo not shown) [Nadolol] showed a Papp A→B at 2 h, 10 μM [21] of 0.657 ×10⁻⁶ cm/s, a Papp B→A at 2 h, 10 μM [21] of 0.364 ×10⁻⁶ cm/s and an efflux ratio at 2 h, 10 μM [22] of 0.554. The Papp A→B at 2 h, 10 μM [23] was 0.721 ×10⁻⁶ cm/s, the Papp B→A at 2 h, 10 μM [23] was 0.634 ×10⁻⁶ cm/s and the efflux ratio at 2 h, 10 μM [23] was 0.88.

CC(=O)O[C@H]1C(=O)[C@@]2(C)[C@H]([C@H](OC(=O)c3ccccc3)[C@]3(O)C[C@H](OC(=O)[C@H](O)[C@@H](NC(=O)c4ccccc4)c4ccccc4)C(C)=C1C3(C)C)[C@]1(OC(C)=O)CO[C@@H]1C[C@@H]2O [Taxol] showed a Papp A→B at 2 h, 10 μM [21] of 1.17 ×10⁻⁶ cm/s, a Papp B→A at 2 h, 10 μM [21] of 1.28 ×10⁻⁶ cm/s and an efflux ratio at 2 h, 10 μM [22] of 1.09. It also gave a Papp A→B at 2 h, 10 μM [23] of 0.0798 ×10⁻⁶ cm/s, a Papp B→A at 2 h, 10 μM [23] of 0.56 ×10⁻⁶ cm/s and an efflux ratio at 2 h, 10 μM [23] of 7.02.
